The values that follow come from ChEMBL document CHEMBL3400053, “trans-3,4-Disubstituted pyrrolidines as inhibitors of the human aspartyl protease renin. Part II: prime site exploration using an oxygen linker” (Bioorg Med Chem Lett, 2015).

For orientation: IC50 means the concentration that inhibits the measured activity by half. A higher IC50 goes with a need for much substance. As a reminder, the half-life is the time in which the quantity being followed falls by half. Low values mean fast loss, high ones slow loss. By solubility is commonly meant the concentration that dissolves in the medium under given conditions. A low value points to little dissolved substance. As usually defined, the Cmax is the highest concentration seen after dosing.

Molecules are shown by their SMILES. Where only a bound is given, the exact number is not on record here.

For series [1], the target named is Mu-type opioid receptor (Homo sapiens, UniProt P35372). The series can be described thus: Inhibition of mu opioid receptor (unknown origin).
Sequence of Mu-type opioid receptor (P35372 whole entry): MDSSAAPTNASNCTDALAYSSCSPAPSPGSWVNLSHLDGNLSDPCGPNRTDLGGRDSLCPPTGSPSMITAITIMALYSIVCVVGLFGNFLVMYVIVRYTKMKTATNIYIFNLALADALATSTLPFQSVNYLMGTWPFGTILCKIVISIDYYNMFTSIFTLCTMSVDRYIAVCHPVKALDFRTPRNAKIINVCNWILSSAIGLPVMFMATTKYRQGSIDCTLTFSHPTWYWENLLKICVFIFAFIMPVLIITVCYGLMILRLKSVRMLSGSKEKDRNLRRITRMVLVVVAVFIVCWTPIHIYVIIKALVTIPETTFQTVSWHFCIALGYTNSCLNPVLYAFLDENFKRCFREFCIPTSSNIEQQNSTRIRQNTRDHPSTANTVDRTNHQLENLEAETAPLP
The target of series [2] is T1, Alpha-2B adrenergic receptor (Homo sapiens, UniProt P18089).
T1 sequence (P18089 whole entry): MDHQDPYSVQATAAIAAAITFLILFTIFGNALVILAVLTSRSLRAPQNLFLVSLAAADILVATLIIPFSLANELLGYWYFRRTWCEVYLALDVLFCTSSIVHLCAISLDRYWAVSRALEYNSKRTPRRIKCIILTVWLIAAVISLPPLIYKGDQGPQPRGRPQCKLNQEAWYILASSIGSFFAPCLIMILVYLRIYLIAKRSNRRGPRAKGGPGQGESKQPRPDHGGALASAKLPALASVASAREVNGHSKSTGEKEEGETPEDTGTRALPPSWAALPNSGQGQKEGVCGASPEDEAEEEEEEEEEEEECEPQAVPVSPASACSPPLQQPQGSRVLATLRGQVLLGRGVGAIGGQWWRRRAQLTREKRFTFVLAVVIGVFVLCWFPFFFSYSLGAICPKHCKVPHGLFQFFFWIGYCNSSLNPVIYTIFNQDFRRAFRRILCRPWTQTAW
The experiment in a line: Inhibition of alpha-adrenoceptor 2B (unknown origin).

Series [3] is described as follows: Half life in cannulated fed Sprague-Dawley rat at 2 mg/kg, iv. The class given is ADME, organism-based. The arrangement: dose 2 mg/kg, route intravenous. Conditions: in vivo.
For series [4], the target named is Voltage-gated inwardly rectifying potassium channel KCNH2 (Homo sapiens, UniProt Q12809). The experiment in a line: Inhibition of human ERG by dofetilide binding assay.
Sequence of Voltage-gated inwardly rectifying potassium channel KCNH2 (Q12809 whole entry): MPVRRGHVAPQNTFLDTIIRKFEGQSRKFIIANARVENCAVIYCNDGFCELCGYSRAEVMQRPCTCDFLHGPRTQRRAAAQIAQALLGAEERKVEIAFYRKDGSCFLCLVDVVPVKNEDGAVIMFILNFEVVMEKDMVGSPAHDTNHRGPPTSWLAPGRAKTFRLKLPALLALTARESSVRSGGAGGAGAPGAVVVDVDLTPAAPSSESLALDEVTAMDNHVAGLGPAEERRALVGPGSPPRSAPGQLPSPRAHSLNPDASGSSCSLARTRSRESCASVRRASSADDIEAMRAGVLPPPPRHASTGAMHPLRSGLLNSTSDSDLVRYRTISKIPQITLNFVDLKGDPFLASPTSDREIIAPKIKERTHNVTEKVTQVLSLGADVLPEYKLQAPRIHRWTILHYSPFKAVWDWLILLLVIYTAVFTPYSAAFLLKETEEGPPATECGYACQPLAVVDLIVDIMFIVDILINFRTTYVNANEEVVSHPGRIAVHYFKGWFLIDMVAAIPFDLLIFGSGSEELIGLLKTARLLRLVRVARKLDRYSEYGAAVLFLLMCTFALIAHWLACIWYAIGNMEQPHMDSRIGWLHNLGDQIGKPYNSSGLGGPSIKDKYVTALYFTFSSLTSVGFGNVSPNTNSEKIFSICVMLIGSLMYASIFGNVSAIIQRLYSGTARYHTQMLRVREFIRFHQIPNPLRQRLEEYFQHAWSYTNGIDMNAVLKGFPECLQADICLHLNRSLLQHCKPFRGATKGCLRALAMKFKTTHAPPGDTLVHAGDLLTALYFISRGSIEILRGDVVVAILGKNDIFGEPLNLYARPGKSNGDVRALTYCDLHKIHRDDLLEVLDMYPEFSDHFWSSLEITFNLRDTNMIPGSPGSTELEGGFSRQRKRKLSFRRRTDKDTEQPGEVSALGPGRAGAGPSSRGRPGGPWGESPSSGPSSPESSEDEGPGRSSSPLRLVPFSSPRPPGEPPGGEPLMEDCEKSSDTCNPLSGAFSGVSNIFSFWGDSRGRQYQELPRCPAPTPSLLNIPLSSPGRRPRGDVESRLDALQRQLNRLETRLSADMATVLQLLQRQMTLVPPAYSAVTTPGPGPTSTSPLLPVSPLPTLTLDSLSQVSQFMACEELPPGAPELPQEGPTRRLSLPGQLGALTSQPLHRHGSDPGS
Series [5] is described as follows: Solubility in aqueous buffer at pH 6.8. In kind it is physicochemical.
Series [6] concerns the target T2, Gastricsin (Homo sapiens, UniProt P20142).
T2 sequence (P20142 whole entry): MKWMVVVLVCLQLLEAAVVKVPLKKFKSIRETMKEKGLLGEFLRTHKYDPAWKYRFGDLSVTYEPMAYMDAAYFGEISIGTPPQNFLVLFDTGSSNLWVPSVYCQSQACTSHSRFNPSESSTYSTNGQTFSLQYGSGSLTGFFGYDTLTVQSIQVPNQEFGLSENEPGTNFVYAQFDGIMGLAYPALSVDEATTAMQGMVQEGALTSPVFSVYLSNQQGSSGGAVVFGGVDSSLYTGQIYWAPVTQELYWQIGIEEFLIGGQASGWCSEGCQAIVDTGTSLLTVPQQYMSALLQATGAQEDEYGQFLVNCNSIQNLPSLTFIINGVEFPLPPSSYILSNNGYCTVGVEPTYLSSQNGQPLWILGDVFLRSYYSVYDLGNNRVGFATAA
The series can be described thus: Inhibition of pepsin C (unknown origin).

Series [7] deals with Cytochrome P450 2D6 (Homo sapiens, UniProt P10635). The series can be described thus: Inhibition of CYP2D6 (unknown origin). The class given is ADME.
Sequence of Cytochrome P450 2D6 (P10635 whole entry): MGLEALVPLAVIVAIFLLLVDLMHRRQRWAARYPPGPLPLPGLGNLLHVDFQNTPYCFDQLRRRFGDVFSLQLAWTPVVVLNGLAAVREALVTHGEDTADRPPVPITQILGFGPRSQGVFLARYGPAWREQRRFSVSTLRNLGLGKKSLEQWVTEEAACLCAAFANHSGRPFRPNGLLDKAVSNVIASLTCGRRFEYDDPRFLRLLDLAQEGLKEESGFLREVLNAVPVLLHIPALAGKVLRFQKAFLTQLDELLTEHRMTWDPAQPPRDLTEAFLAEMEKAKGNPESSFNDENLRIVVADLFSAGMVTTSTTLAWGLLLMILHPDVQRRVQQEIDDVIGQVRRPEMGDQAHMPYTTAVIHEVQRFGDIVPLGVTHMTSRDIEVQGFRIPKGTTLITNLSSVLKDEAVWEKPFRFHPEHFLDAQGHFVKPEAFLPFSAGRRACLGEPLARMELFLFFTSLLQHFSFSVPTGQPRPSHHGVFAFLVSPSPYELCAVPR
Series [8] deals with Rattus norvegicus. The series can be described thus: Reduction in mean arterial blood pressure in hypertensive telemetered double-transgenic rat overexpressing human renin and angiotensinogen at 6 mg/kg, po. In kind it is functional.
The target in series [9] is Cytochrome P450 2C9 (Homo sapiens, UniProt P11712). The experiment in a line: Inhibition of CYP2C9 (unknown origin). In kind it is ADME.
Sequence of Cytochrome P450 2C9 (P11712 whole entry): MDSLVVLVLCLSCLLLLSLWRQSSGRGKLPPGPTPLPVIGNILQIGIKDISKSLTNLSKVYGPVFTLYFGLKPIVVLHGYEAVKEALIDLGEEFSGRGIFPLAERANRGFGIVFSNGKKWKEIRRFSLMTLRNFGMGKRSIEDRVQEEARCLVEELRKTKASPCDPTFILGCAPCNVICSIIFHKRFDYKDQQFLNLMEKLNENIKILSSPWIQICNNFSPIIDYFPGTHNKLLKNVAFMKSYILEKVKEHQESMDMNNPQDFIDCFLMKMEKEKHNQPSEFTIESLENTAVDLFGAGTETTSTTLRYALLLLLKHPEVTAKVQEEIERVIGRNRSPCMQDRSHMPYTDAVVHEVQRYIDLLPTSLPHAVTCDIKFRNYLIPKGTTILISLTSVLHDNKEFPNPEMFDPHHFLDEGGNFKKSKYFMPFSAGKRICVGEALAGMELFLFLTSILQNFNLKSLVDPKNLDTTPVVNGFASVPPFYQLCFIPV
In series [10] the target is T3, Alpha-2A adrenergic receptor (Homo sapiens, UniProt P08913).
T3 sequence (P08913 whole entry): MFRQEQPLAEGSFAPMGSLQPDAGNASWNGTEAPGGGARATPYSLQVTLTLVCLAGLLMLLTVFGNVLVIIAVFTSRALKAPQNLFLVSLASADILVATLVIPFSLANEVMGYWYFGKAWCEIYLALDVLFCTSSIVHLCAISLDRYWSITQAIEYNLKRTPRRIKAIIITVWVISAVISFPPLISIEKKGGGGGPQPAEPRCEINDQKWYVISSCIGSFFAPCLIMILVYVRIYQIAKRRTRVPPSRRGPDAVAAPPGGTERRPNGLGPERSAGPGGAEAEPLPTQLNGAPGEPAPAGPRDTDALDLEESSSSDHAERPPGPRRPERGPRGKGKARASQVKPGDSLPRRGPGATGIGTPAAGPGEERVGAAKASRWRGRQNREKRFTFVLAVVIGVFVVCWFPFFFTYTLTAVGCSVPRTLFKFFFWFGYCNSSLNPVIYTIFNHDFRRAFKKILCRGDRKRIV
The experiment in a line: Inhibition of alpha-adrenoceptor 2A (unknown origin).

The target of series [11] is T4, Cathepsin E (Homo sapiens, UniProt P14091).
T4 sequence (P14091 whole entry): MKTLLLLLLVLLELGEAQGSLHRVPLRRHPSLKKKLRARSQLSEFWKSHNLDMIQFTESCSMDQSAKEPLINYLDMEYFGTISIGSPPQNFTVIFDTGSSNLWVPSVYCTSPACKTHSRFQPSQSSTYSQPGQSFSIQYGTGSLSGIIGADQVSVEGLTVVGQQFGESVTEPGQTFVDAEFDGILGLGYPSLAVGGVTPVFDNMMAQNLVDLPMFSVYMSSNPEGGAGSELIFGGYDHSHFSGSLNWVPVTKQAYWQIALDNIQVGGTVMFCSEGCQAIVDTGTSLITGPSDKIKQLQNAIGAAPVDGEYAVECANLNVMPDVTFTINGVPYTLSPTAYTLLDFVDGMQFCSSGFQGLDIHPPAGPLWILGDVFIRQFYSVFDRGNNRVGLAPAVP
The series can be described thus: Inhibition of cathepsin E (unknown origin).

For series [12], the system named is Rattus norvegicus. The series can be described thus: Reduction in mean arterial blood pressure in hypertensive telemetered double-transgenic rat overexpressing human renin and angiotensinogen at 30 mg/kg, po. In kind it is functional.
The target in series [13] is Cathepsin D (Homo sapiens, UniProt P07339). The series can be described thus: Inhibition of cathepsin D (unknown origin).
Sequence of Cathepsin D (P07339 65-162 limits assumed): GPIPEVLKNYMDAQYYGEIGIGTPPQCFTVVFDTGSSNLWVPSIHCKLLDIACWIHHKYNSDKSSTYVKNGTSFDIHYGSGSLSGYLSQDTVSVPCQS
Sequence of Cathepsin D (P07339 169-412 limits assumed): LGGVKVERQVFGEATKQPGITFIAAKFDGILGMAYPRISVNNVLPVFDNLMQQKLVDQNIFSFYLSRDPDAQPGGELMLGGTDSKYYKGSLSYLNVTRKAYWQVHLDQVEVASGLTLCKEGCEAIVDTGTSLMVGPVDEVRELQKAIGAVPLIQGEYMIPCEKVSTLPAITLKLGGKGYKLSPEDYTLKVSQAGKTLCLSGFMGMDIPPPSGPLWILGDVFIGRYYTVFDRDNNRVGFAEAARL
Series [14] is described as follows: Volume of distribution at steady state in cannulated fed Sprague-Dawley rat at 2 mg/kg, iv. In kind it is ADME, organism-based. Further details: dose 2 mg/kg, route intravenous. Conditions: in vivo, read-out: Vdss.
The nature of series [15]: Cmax in cannulated fed Sprague-Dawley rat at 6 mg/kg, po. The class given is ADME, organism-based. Further details: dose 6 mg/kg, route oral. Conditions: in vivo.
Series [16] deals with T5, Alpha-1A adrenergic receptor (Homo sapiens, UniProt P35348).
T5 sequence (P35348 whole entry): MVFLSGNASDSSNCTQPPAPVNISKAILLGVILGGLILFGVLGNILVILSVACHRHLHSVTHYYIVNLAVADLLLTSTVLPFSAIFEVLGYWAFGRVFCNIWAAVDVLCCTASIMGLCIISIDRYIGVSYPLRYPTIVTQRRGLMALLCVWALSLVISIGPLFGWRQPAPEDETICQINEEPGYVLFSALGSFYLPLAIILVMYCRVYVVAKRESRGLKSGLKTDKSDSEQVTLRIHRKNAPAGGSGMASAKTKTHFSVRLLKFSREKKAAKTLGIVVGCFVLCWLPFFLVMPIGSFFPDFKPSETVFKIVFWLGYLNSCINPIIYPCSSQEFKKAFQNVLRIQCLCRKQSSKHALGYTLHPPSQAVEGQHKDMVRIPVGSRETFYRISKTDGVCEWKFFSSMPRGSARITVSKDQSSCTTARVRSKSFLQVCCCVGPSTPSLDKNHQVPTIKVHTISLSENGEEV
The experiment in a line: Inhibition of alpha-adrenoceptor 1A (unknown origin).

Series [17] has as its target Cytochrome P450 3A4 (Homo sapiens, UniProt P08684). The series can be described thus: Inhibition of CYP3A4 (unknown origin) using 7-benzyl-4-trifluoromethylcoumarin as fluorometric substrate. In kind it is ADME.

Sequence of Cytochrome P450 3A4 (P08684 whole entry): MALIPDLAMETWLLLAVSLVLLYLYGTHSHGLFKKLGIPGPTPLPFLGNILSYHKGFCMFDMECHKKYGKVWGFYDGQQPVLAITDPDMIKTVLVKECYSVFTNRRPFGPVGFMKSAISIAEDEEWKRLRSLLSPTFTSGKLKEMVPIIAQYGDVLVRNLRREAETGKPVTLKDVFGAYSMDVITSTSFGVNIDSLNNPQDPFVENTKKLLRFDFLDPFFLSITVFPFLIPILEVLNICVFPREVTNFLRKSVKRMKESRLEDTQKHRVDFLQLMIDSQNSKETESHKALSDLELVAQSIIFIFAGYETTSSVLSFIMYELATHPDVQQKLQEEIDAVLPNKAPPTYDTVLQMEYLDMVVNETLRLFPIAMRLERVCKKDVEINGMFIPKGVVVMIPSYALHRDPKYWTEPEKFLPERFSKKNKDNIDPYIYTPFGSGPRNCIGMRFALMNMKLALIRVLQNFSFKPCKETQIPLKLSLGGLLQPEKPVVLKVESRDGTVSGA

Consider `COCCCOc1cc(C(=O)N(C[C@@H]2CNC[C@H]2OC(=O)NCc2ccccc2)C(C)C)ccc1OC`, for which the concentration for half-maximal inhibition (IC50) in [1] was 1 µM; in [2] it was 1 µM; in [4], 13 µM; in [6] it was > 30 µM; in series [7] it was > 20 µM; in [9] it was > 20 µM. The IC50 in series [10] is 1 µM; in series [11], > 30 µM; in series [13] it was > 30 µM; in series [16], 0.5 µM; in [17], 4 µM. In [3], this compound showed a half-life of 2.2 h. In series [5], the solubility is > 1000 µM. Moreover, the Activity is 43 mmHg in series [8] and 62 mmHg in series [12]. Moreover, the Vd in series [14] came to 4.9 L/kg. This compound also yielded a Cmax in series [15] of 1020 nM.
